According to PubChem BioAssay AID1259407 (Chemical Carcinogenesis Research Information System (CCRIS), 2018):
Calls of active or inactive are those of the source. No rule for the calls is given here.

Tested on: CCRIS mutagenicity, Ames/micronucleus/aberration tests
Assay: CCRIS mutagenicity studies
[1] = Test System: AMES SALMONELLA TYPHIMURIUM, Strain/Indicator: TA98, Metabolic Activation: NONE, Method: PREINCUBATION
[2] = Test System: AMES SALMONELLA TYPHIMURIUM, Strain/Indicator: TA100, Metabolic Activation: NONE, Method: PREINCUBATION
[3] = Test System: AMES SALMONELLA TYPHIMURIUM, Strain/Indicator: TA98, Metabolic Activation: NONE, Method: STANDARD PLATE
[4] = Test System: AMES SALMONELLA TYPHIMURIUM, Strain/Indicator: TA98, Metabolic Activation: RAT, LIVER, S-9, AROCLOR 1254, Method: STANDARD PLATE
[5] = Test System: AMES SALMONELLA TYPHIMURIUM, Strain/Indicator: TA100, Metabolic Activation: NONE, Method: STANDARD PLATE
[6] = Test System: AMES SALMONELLA TYPHIMURIUM, Strain/Indicator: TA100, Metabolic Activation: RAT, LIVER, S-9, AROCLOR 1254, Method: STANDARD PLATE

With `CC(=O)c1cccc(N=Nc2ccc(N)c(C(C)=O)c2C)c1C` the mutagenic call [1] was “inactive; negative”, the mutagenic call (Test System: AMES SALMONELLA TYPHIMURIUM, Strain/Indicator: TA98, Metabolic Activation: RAT, LIVER, S-9, PHENOBARBITAL AND 5,6-BENZOFLAVONE, Method: PREINCUBATION) was “inactive; negative” and the mutagenic call [2] was “inactive; negative”. For the same molecule, the mutagenic call (Test System: AMES SALMONELLA TYPHIMURIUM, Strain/Indicator: TA100, Metabolic Activation: RAT, LIVER, S-9, PHENOBARBITAL AND 5,6-BENZOFLAVONE, Method: PREINCUBATION) was “inactive; negative”.

With `c1ccc2c(c1)c1cccc3ccc4cccc2c4c31` the mutagenic call (End Point: IN VITRO MICRONUCLEUS, Test System: CHINESE HAMSTER V79 CELLS, Metabolic Activation: S-9) was “active; positive”, the mutagenic call (Test System: AMES SALMONELLA TYPHIMURIUM, Strain/Indicator: TA97, Metabolic Activation: NONE, Method: STANDARD PLATE) was “inactive; negative” and the mutagenic call (Test System: AMES SALMONELLA TYPHIMURIUM, Strain/Indicator: TA97, Metabolic Activation: RAT, LIVER, S-9, PCB, Method: STANDARD PLATE) was “active; positive”. For the same molecule, the mutagenic call [3] was “inactive; negative”, the mutagenic call [4] was “active; positive” and the mutagenic call (Test System: AMES SALMONELLA TYPHIMURIUM, Strain/Indicator: TA98, Metabolic Activation: RAT, LIVER, S-9, PCB, Method: STANDARD PLATE) was “active; positive”. The mutagenic call (Test System: AMES SALMONELLA TYPHIMURIUM, Strain/Indicator: TA100, Metabolic Activation: MOUSE, LIVER, MICROSOMES, BENZO[E]PYRENE AND TCDD, Method: STANDARD PLATE) was “inactive; negative”, the mutagenic call [5] was “inactive; negative” and the mutagenic call [6] was “active; positive”. For the same molecule, the mutagenic call (Test System: AMES SALMONELLA TYPHIMURIUM, Strain/Indicator: TA100, Metabolic Activation: RAT, LIVER, S-9, PCB, Method: STANDARD PLATE) was “active; positive”, the mutagenic call (Test System: E. COLI, Strain/Indicator: WP2 UVRA, Metabolic Activation: HAMSTER, LIVER, S-9, AROCLOR 1254, Method: STANDARD PLATE) was “inactive; negative” and the mutagenic call (Test System: E. COLI, Strain/Indicator: WP2 UVRA, Metabolic Activation: HAMSTER, LIVER, S-9, Method: STANDARD PLATE) was “inactive; negative”. The mutagenic call (Test System: E. COLI, Strain/Indicator: WP2 UVRA, Metabolic Activation: MOUSE, LIVER, S-9, AROCLOR 1254, Method: STANDARD PLATE) was “inactive; negative”, the mutagenic call (Test System: E. COLI, Strain/Indicator: WP2 UVRA, Metabolic Activation: MOUSE, LIVER, S-9, Method: STANDARD PLATE) was “inactive; negative” and the mutagenic call (Test System: E. COLI, Strain/Indicator: WP2 UVRA, Metabolic Activation: NONE, Method: STANDARD PLATE) was “inactive; negative”. The mutagenic call (Test System: E. COLI, Strain/Indicator: WP2 UVRA, Metabolic Activation: RAT, LIVER, S-9, AROCLOR 1254, Method: STANDARD PLATE) was “inactive; negative”, the mutagenic call (Test System: E. COLI, Strain/Indicator: WP2 UVRA, Metabolic Activation: RAT, LIVER, S-9, Method: STANDARD PLATE) was “inactive; negative” and the mutagenic call (Test System: MOUSE LYMPHOMA, Strain/Indicator: L5178Y (TK+/TK-), Metabolic Activation: NONE, Method: SUSPENSION/PLATE) was “inactive; negative”. The mutagenic call (Test System: MOUSE LYMPHOMA, Strain/Indicator: L5178Y (TK+/TK-), Metabolic Activation: RAT, LIVER, S-9, AROCLOR 1254, Method: SUSPENSION/PLATE) was “active; positive”, the mutagenic call (Test System: MOUSE LYMPHOMA, Strain/Indicator: L5178Y (TK+/TK-), Metabolic Activation: RAT, LIVER, S-9, Method: SUSPENSION/PLATE) was “inactive; negative” and the mutagenic call (Test System: UDS HUMAN CELLS, Strain/Indicator: THY INCORP (NON-S-PHASE), Metabolic Activation: RAT, LIVER, S-9, 3-METHYLCHOLANTHRENE, Method: LIQUID SCINTILLATION COUNTING) was “active; positive”.

In the case of `CCCCCCCCCC`, the mutagenic call (Test System: AMES SALMONELLA TYPHIMURIUM, Strain/Indicator: TA97, Metabolic Activation: HAMSTER, LIVER, S-9, AROCLOR 1254 (10 OR 30%), Method: PREINCUBATION) is reported as “inactive; negative”, the mutagenic call (Test System: AMES SALMONELLA TYPHIMURIUM, Strain/Indicator: TA97, Metabolic Activation: NONE, Method: PREINCUBATION) is reported as “inactive; negative” and the mutagenic call (Test System: AMES SALMONELLA TYPHIMURIUM, Strain/Indicator: TA97, Metabolic Activation: RAT, LIVER, S-9, AROCLOR 1254 (5%), Method: PREINCUBATION) is reported as “inactive; negative”. The mutagenic call (Test System: AMES SALMONELLA TYPHIMURIUM, Strain/Indicator: TA97, Metabolic Activation: RAT, LIVER, S-9, AROCLOR 1254 (10 OR 30%), Method: PREINCUBATION) was “inactive; negative”, the mutagenic call (Test System: AMES SALMONELLA TYPHIMURIUM, Strain/Indicator: TA98, Metabolic Activation: HAMSTER, LIVER, S-9, AROCLOR 1254 (10 OR 30%), Method: PREINCUBATION) was “inactive; negative” and the mutagenic call [1] was “inactive; negative”. The mutagenic call (Test System: AMES SALMONELLA TYPHIMURIUM, Strain/Indicator: TA98, Metabolic Activation: RAT, LIVER, S-9, AROCLOR 1254 (10 OR 30%), Method: PREINCUBATION) was “inactive; negative”, the mutagenic call (Test System: AMES SALMONELLA TYPHIMURIUM, Strain/Indicator: TA100, Metabolic Activation: HAMSTER, LIVER, S-9, AROCLOR 1254 (10 OR 30%), Method: PREINCUBATION) was “inactive; negative” and the mutagenic call [2] was “inactive; negative”. The mutagenic call (Test System: AMES SALMONELLA TYPHIMURIUM, Strain/Indicator: TA100, Metabolic Activation: RAT, LIVER, S-9, AROCLOR 1254 (10 OR 30%), Method: PREINCUBATION) was “inactive; negative”, the mutagenic call (Test System: AMES SALMONELLA TYPHIMURIUM, Strain/Indicator: TA1535, Metabolic Activation: HAMSTER, LIVER, S-9, AROCLOR 1254 (10 OR 30%), Method: PREINCUBATION) was “inactive; negative” and the mutagenic call (Test System: AMES SALMONELLA TYPHIMURIUM, Strain/Indicator: TA1535, Metabolic Activation: NONE, Method: PREINCUBATION) was “inactive; negative”. For the same molecule, the mutagenic call (Test System: AMES SALMONELLA TYPHIMURIUM, Strain/Indicator: TA1535, Metabolic Activation: RAT, LIVER, S-9, AROCLOR 1254 (10 OR 30%), Method: PREINCUBATION) was “inactive; negative”, the mutagenic call (Test System: AMES SALMONELLA TYPHIMURIUM, Strain/Indicator: TA1537, Metabolic Activation: HAMSTER, LIVER, S-9, AROCLOR 1254 (30%), Method: PREINCUBATION) was “inactive; negative” and the mutagenic call (Test System: AMES SALMONELLA TYPHIMURIUM, Strain/Indicator: TA1537, Metabolic Activation: NONE, Method: PREINCUBATION) was “inactive; negative”. The mutagenic call (Test System: AMES SALMONELLA TYPHIMURIUM, Strain/Indicator: TA1537, Metabolic Activation: RAT, LIVER, S-9, AROCLOR 1254 (5 OR 10%), Method: PREINCUBATION) was “inactive; negative” and the mutagenic call (Test System: AMES SALMONELLA TYPHIMURIUM, Strain/Indicator: TA1537, Metabolic Activation: RAT, LIVER, S-9, AROCLOR 1254 (30%), Method: PREINCUBATION) was “inactive; negative”.

`CN(Cc1ccc(Br)cc1)N=O` was tested, and the mutagenic call (Test System: AMES SALMONELLA TYPHIMURIUM, Strain/Indicator: TA1535, Metabolic Activation: HAMSTER, LIVER, S-9, AROCLOR 1254, Method: STANDARD PLATE) was “active; positive” and the mutagenic call (Test System: AMES SALMONELLA TYPHIMURIUM, Strain/Indicator: TA1535, Metabolic Activation: NONE, Method: STANDARD PLATE) was “inactive; negative”.

In the case of `CC12OOC1(C)c1c(ccc3ccccc13)O2` (stereo not given), the mutagenic call [2] is reported as “inactive; negative”.

For `Nc1c(F)cc(-c2cc(F)c(N)c(F)c2)cc1F`, the mutagenic call (Test System: UDS HUMAN CELLS, Strain/Indicator: THY INCORP (NON-S-PHASE), Metabolic Activation: RAT, LIVER, S-9, PHENOBARBITAL, Method: LIQUID SCINTILLATION COUNTING) was “active; positive”.

`Oc1cc2ccccc2c2ccc3ccccc3c12` was tested, and the mutagenic call [3] was “inactive; negative”, the mutagenic call [4] was “inactive; negative” and the mutagenic call [5] was “inactive; negative”. The mutagenic call [6] was “inactive; negative”.

`CCCCN=[N+]=[N-]` was tested, and the mutagenic call (Test System: Ames Salmonella typhimurium, Strain/Indicator: TA100, Metabolic Activation: None, Method: Preincubation) was “inactive; negative” and the mutagenic call (Test System: Ames Salmonella typhimurium, Strain/Indicator: TA100, Metabolic Activation: Rat, Liver, S-9, Aroclor 1254, Method: Preincubation) was “active; positive”.

In the case of `Cc1ccc([N+](=O)[O-])c(C)c1`, the mutagenic call [1] is reported as “inactive; negative”, the mutagenic call (Test System: AMES SALMONELLA TYPHIMURIUM, Strain/Indicator: TA98, Metabolic Activation: RAT, LIVER, S-9, KANECHLOR 500, Method: PREINCUBATION) is reported as “inactive; negative” and the mutagenic call [2] is reported as “inactive; negative”.
